≈ marks a conversion by molar mass, not a printed value. Like-named read-outs stand apart in the source and are kept apart here. *1 amine or outer side, *2 acyl side, *3 side chain or, on linkers, in order; H or OH if unused. Where a SMILES comes first, the peptide text is derived from it. Bridges are numbered along the chain shown (N, C = ends). [ ]: non-standard residue; d: D form. The star is where a group is joined. hTyr(3S-OH,4S-OH,3'-OSO3H) = N[C@H](C(=O)O)[C@H](O)[C@@H](O)c1ccc(O)c(OS(=O)(=O)O)c1; Orn(4R-OH,5R-OH) = O=C([C@H](C[C@@H](O)[C@@H](O)N[*:3])N[*:1])[*:2]; Pro(3S-OH,4S-Me) = C[C@H]1CN[C@H](C(=O)O)[C@H]1O; X1 = CCCCCOc1ccc(-c2cc(-c3ccc(C(=O)*)cc3)no2)cc1; Gln(3R-OH) = NC(=O)C[C@@H](O)[C@H](N)C(=O)O; Hyp = O=C(O)[C@@H]1C[C@@H](O)CN1
How the values were obtained:
Candida albicans = tested on: Candida albicans; set-up: method as in PMID 24153129, PMID 21300835; settings: published for Candida albicans; cited from earlier work
[1] = Micafungin plasma pharmacokinetics in adult patients treated with ECMO (samples before and after the oxygenation membrane); assay type: in vivo, human; settings: for clearance / Vd / Cmax / AUC: human
Description: (§1) We conducted an observational, prospective, noninterventional and nondrug-linked study of the PKs and safety of micafungin in adult patients treated with ECMO in two Spanish hospitals: the intensive care unit (ICU) of the Hospital Universitario Marqués de Valdecilla, Santander, and the Anaesthesiology and Reanimation Department of the Hospital Universitario La Fe, Valencia, Spain. Prophylactic micafungin was administered in all patients. The study period was from January 2015 until April 2016. The PK analysis was performed in the Hospital del Mar, Barcelona, Spain. The trial was authorized by the corresponding Ethics Committees (CEIC Approval Number 17/2014), and Informed Consent of all the patients or their legal representatives was obtained.
Micafungin was given at a dose of 100mg diluted in 100ml of 0.9% saline in a 60-minute infusion always protected from light to prevent degradation. Five mL blood samples were taken, protected from light, on days 1 and 4 of the treatment with micafungin. The samples were taken through an access point before and after the oxygenation membrane (input and output, respectively). The extraction times for the calculation of complete PK curves were as follows: before the administration of the drug (trough or zero time); immediately after intravenous infusion (1-hour peak or end-of-infusion peak); and 3, 5, 8, 18 and 24 hours after the beginning of the infusion. Samples were centrifuged at a speed of 1,000g for ten minutes at 4 °C. The supernatant plasma was aliquoted into volumes of 150µl that were frozen at -80 °C until they were to be analyzed. The measurement of the total micafungin concentration (free plus protein-bound fractions) was performed by means of a high-performance liquid chromatography technique.
The following PK parameters were calculated: area under the curve (AUC), CL, Vd and plasma half-life time (t/2) with a noncompartmental PK data analysis using a nonparametric method: the Mann-Whitney test and the Wilcoxon signed-rank test (paired test, in consecutive days). For precision analysis, confidence intervals were calculated by bootstrapping with 1,000 repetitions using the method […] (BCa).
The calculation of the differences in the concentration of micafungin at the input (Cin) and output (Cout) of the oxygenator membrane allowed us to calculate the oxygenator’s degree of extraction. It should be remembered that there may be losses of micafungin in tubes and cannula and in the centrifugal pump.
Only continuous epidemiological and clinical data are presented as the mean and standard deviation (SD), and categorical data are presented as absolute numbers because of the small sample size. The rest of the parameters, including Cmin and Cmax, are presented as medians.

candidemia = assay: Candidemia in patients on ECMO receiving prophylactic micafungin; assay type: in vivo, human; settings: prophylactic micafungin 100mg, 12 adult ECMO patients
Description: as §1

[2] = ECMO patients vs non-ECMO patients; hemodialysis was used in 4 patients; cited from earlier work
Description: Adsorption by the hemoﬁlter appears to be the most likely explanation when this is in line with an ECMO system. In an “ex vivo” study, the recovery of micafungin was 91% when the in-line hemofilter was removed.

[3] = set-up: method as in PMID 25947367; settings: daily dose of 100mg, cited from earlier work

**Q.** What does the source list for `CCCCCOc1ccc(-c2cc(-c3ccc(C(=O)N[C@H]4C[C@@H](O)[C@@H](O)NC(=O)[C@@H]5[C@@H](O)[C@@H](C)CN5C(=O)[C@H]([C@H](O)CC(N)=O)NC(=O)[C@H]([C@H](O)[C@@H](O)c5ccc(O)c(OS(=O)(=O)O)c5)NC(=O)[C@@H]5C[C@@H](O)CN5C(=O)[C@H]([C@@H](C)O)NC4=O)cc3)no2)cc1` [micafungin] (X1-[Orn(4R-OH,5R-OH)]T[Hyp][hTyr(3S-OH,4S-OH,3'-OSO3H)][Gln(3R-OH)][Pro(3S-OH,4S-Me)]; lactam 1-C)?
**A.** MIC90 (Candida albicans): 0.03 mg/L (≈ 0.0236 µM); Cmin out ([1]; Table 2, day 1, after membrane, 100mg iv, ECMO patients, plasma HPLC, median): 1.41 µg/mL; CL in ([1]; Table 2, day 1, before membrane, 100mg iv, ECMO patients, noncompartmental, median): 1.07 L/h; Cmin in ([1]; Table 2, day 1, before membrane, 100mg iv, ECMO patients, plasma HPLC, median): 1.41 µg/mL; Cmin out ([1]; Table 2, day 4, after membrane, 100mg iv, ECMO patients, plasma HPLC, median): 1.75 µg/mL; Cmin in ([1]; Table 2, day 4, before membrane, 100mg iv, ECMO patients, plasma HPLC, median): 1.80 µg/mL; AUCin on day one ([1]; adult ECMO patients, 100mg 60-minute iv infusion, day 1, sample before the membrane, plasma total concentration by HPLC, noncompartmental, 95%CI 52.8 - 73.4, 10 patients): 62.1 µg·h/mL; AKI AUCout ([1]; day 1, ECMO patients with acute kidney injury, after membrane, 100mg iv, p = 0.71): 69.3 p = 0.71; Hepatic failure AUCout ([1]; day 1, ECMO patients with hepatic failure, after membrane, 100mg iv, p = 0.91): 61.6 p = 0.91; AKI AUCout ([1]; day 4, ECMO patients with acute kidney injury, after membrane, 100mg iv, p = 0.88): 106.7 p = 0.88; Hepatic failure AUCout ([1]; day 4, ECMO patients with hepatic failure, after membrane, 100mg iv, p = 0.68): 85.2 p = 0.68; concentration difference between samples before the membrane (C in) and after the membrane (C out) ([1]; first day of treatment, 100mg iv, ECMO patients, figure 1A): did not show any concentration difference; concentration difference between samples before the membrane (Cin) and after the membrane (Cout) ([1]; fourth day of treatment, 100mg iv, ECMO patients, figure 1B): did not show any concentration difference; clearance ([1]; plasma, iv, 100 mg, Table 2, day 1, after membrane, 100mg iv, ECMO patients, noncompartmental, median, read-out: CL out (converted)): 16.5 mL/min; Vd ([1]; plasma, iv, 100 mg, Table 2, day 1, after membrane, 100mg iv, ECMO patients, noncompartmental, median, read-out: Vd out): 27.2 L; Cmax ([1]; plasma, iv, 100 mg, Table 2, day 1, after membrane, 100mg iv, ECMO patients, plasma HPLC, median, read-out: Cmax out): 4.95 µg/mL; AUC ([1]; plasma, iv, 100 mg, Table 2, day 1, after membrane, 100mg iv, ECMO patients, plasma HPLC, noncompartmental, median, read-out: AUC out): 54.1 µg·h/mL; Vd ([1]; plasma, iv, 100 mg, Table 2, day 1, before membrane, 100mg iv, ECMO patients, noncompartmental, median, read-out: Vd in): 28.6 L; Cmax ([1]; plasma, iv, 100 mg, Table 2, day 1, before membrane, 100mg iv, ECMO patients, plasma HPLC, median, read-out: Cmax in): 5.85 µg/mL; clearance ([1]; plasma, iv, 100 mg, Table 2, day 4, after membrane, 100mg iv, ECMO patients, noncompartmental, median, read-out: CL out (converted)): 12.8 mL/min; Vd ([1]; plasma, iv, 100 mg, Table 2, day 4, after membrane, 100mg iv, ECMO patients, noncompartmental, median, read-out: Vd out): 18.1 L; Cmax ([1]; plasma, iv, 100 mg, Table 2, day 4, after membrane, 100mg iv, ECMO patients, plasma HPLC, median, read-out: Cmax out): 6.75 µg/mL; AUC ([1]; plasma, iv, 100 mg, Table 2, day 4, after membrane, 100mg iv, ECMO patients, plasma HPLC, noncompartmental, median, read-out: AUC out): 81 µg·h/mL; clearance ([1]; plasma, iv, 100 mg, Table 2, day 4, before membrane, 100mg iv, ECMO patients, noncompartmental, median, read-out: CL in (converted)): 11.8 mL/min; Vd ([1]; plasma, iv, 100 mg, Table 2, day 4, before membrane, 100mg iv, ECMO patients, noncompartmental, median, read-out: Vd in): 16.1 L; Cmax ([1]; plasma, iv, 100 mg, Table 2, day 4, before membrane, 100mg iv, ECMO patients, plasma HPLC, median, read-out: Cmax in): 12.2 µg/mL; AUC ([1]; plasma, iv, 100 mg, Table 2, day 4, before membrane, 100mg iv, ECMO patients, plasma HPLC, noncompartmental, median, read-out: AUC in): 88.8 µg·h/mL; AUC ([1]; plasma, iv, 100 mg, day 1, ECMO patients without acute kidney injury, after membrane, 100mg iv, read-out: No AKI AUCout): 61.9 µg·h/mL; AUC ([1]; plasma, iv, 100 mg, day 1, ECMO patients without hepatic failure, after membrane, 100mg iv, read-out: No hepatic failure AUCout): 66.1 µg·h/mL; AUC ([1]; plasma, iv, 100 mg, day 4, ECMO patients without acute kidney injury, after membrane, 100mg iv, read-out: No AKI AUCout): 95.1 µg·h/mL; AUC ([1]; plasma, iv, 100 mg, day 4, ECMO patients without hepatic failure, after membrane, 100mg iv, read-out: No hepatic failure AUCout): 117 µg·h/mL; AUC ([1]; adult ECMO patients, 100mg 60-minute iv infusion, day 1, sample after the membrane, plasma HPLC, noncompartmental, 95%CI 52.4 - 76.7, 10 patients, read-out: AUCout on day one): 63.4 µg·h/mL; candidemia in patients on ECMO who received prophylactic micafungin (candidemia): No candidemia was observed; reduction in the AUC in the ECMO group versus non-ECMO control group [2]: 23%; AUC after a daily dose of 100mg in ICU patients ([3]; ICU patients (without ECMO)): 78.6 mg·h/L; AUC after a daily dose of 100mg in healthy adults ([3]; healthy adults): 132.6 mg·h/L

— paper PMC7405733, “Pharmacokinetics of micafungin in patients treated with extracorporeal membrane oxygenation: an observational prospective study” (Revista Brasileira de Terapia Intensiva, 2020)
